Assay: Solid-state stability of the forms of the compound of formula (I)
Type: physicochemical

SMILES	thermodynamic stability of the form (between 0° C. and 80° C.)	stability of the amorphous form against crystallization (room temperature)
COC(=O)N(C)c1c(N)nc(-c2nn(Cc3ccccc3F)c3ncccc23)nc1N [Modification I, methyl {4,6-diamino-2-[1-(2-fluorobenzyl)-1H-pyrazolo[3,4-b]pyridino-3-yl]pyrimidino-5-yl}methylcarbamate]	thermodynamically stable form between 0 °C and 80 °C	
COC(=O)N(C)c1c(N)nc(-c2nn(Cc3ccccc3F)c3ncccc23)nc1N [amorphous form, methyl {4,6-diamino-2-[1-(2-fluorobenzyl)-1H-pyrazolo[3,4-b]pyridin-3-yl]pyrimidin-5-yl}methylcarbamate]		can exist at room temperature, but crystallizes very quickly

— patent US12503469B2, “Forms of methyl {4,6-diamino-2-[1-(2-fluorobenzyl)-1H-pyrazolo[3-4-b]pyridino-3-yl]pyrimidino-5-yl} methyl carbamate” (Adverio Pharma GmbH, priority 2013, dated 2025)
